Data: ChEMBL document CHEMBL3046289, “Synthesis and in vitro antimicrobial activity of some newer quinazolinonesulfonamide linked hybrid heterocyclic entities derived from glycine” (2013)
In brackets after ≈: the same amount, converted by molar mass.

Experiments:
Type in all cases: functional
Bacillus cereus = experiment: Antibacterial activity against Bacillus cereus MTCC 1305 assessed as growth inhibition after 24 hr by broth microdilution method; conditions: MTCC 1305, 24 h
Candida albicans = experiment: Antifungal activity against Candida albicans MTCC 227 assessed as growth inhibition after 48 hr by broth microdilution method; conditions: MTCC 227, 48 h
Escherichia coli = experiment: Antibacterial activity against Escherichia coli MTCC 443 assessed as growth inhibition after 24 hr by broth microdilution method; conditions: MTCC 443, 24 h
Pseudomonas aeruginosa = experiment: Antibacterial activity against Pseudomonas aeruginosa MTCC 1688 assessed as growth inhibition after 24 hr by broth microdilution method; conditions: MTCC 1688, 24 h
Klebsiella pneumoniae = experiment: Antibacterial activity against Klebsiella pneumoniae MTCC 139 assessed as growth inhibition after 24 hr by broth microdilution method; conditions: MTCC 139, 24 h
Aspergillus niger = experiment: Antifungal activity against Aspergillus niger MTCC 282 assessed as growth inhibition after 48 hr by broth microdilution method; conditions: MTCC 282, 48 h
Staphylococcus aureus = experiment: Antibacterial activity against Staphylococcus aureus MTCC 2940 assessed as growth inhibition after 24 hr by broth microdilution method; conditions: MTCC 2940, 24 h

Structure (SMILES) | MIC (Bacillus cereus) [µg/mL] | MIC (Candida albicans) [µg/mL] | MIC (Escherichia coli) [µg/mL] | MIC (Pseudomonas aeruginosa) [µg/mL] | MIC (Klebsiella pneumoniae) [µg/mL] | MIC (Aspergillus niger) [µg/mL] | MIC (Staphylococcus aureus) [µg/mL]
CC(=O)Nc1ccc(S(=O)(=O)NCc2nc3ccccc3c(=O)n2-c2ccc(Br)cc2)cc1 | 95 (≈ 180 µM) | 60 (≈ 114 µM) | 65 (≈ 123 µM) | 65 (≈ 123 µM) | 90 (≈ 171 µM) | 50 (≈ 94.8 µM) | 60 (≈ 114 µM)
CC(=O)Nc1ccc(S(=O)(=O)NCc2nc3ccccc3c(=O)n2-c2ccc(Cl)cc2)cc1 | 90 (≈ 186 µM) | 65 (≈ 135 µM) | 60 (≈ 124 µM) | 65 (≈ 135 µM) | 85 (≈ 176 µM) | 55 (≈ 114 µM) | 60 (≈ 124 µM)
CC(=O)N1CCN(c2ccc(OCC3COC(Cn4ccnc4)(c4ccc(Cl)cc4Cl)O3)cc2)CC1 (stereo not drawn) [KETOCONAZOLE] |  | 50 (≈ 94.1 µM) |  |  |  | 40 (≈ 75.3 µM) | 
Nc1ccc(S(=O)(=O)NCc2nc3ccccc3c(=O)n2-c2ccc(F)cc2)cc1 | 55 (≈ 130 µM) | 60 (≈ 141 µM) | 55 (≈ 130 µM) | 65 (≈ 153 µM) | 85 (≈ 200 µM) | 45 (≈ 106 µM) | 60 (≈ 141 µM)
Cc1cccc(-n2c(CNS(=O)(=O)c3ccc(N)cc3)nc3ccccc3c2=O)c1 | 100 (≈ 238 µM) | 95 (≈ 226 µM) | 65 (≈ 155 µM) | 85 (≈ 202 µM) | 115 (≈ 273 µM) | 85 (≈ 202 µM) | 85 (≈ 202 µM)
CC(=O)Nc1ccc(S(=O)(=O)NCc2nc3ccccc3c(=O)n2-c2ccccc2Br)cc1 | 95 (≈ 180 µM) | 70 (≈ 133 µM) | 65 (≈ 123 µM) | 75 (≈ 142 µM) | 95 (≈ 180 µM) | 60 (≈ 114 µM) | 70 (≈ 133 µM)
CC(=O)Nc1ccc(S(=O)(=O)NCc2nc3ccccc3c(=O)n2-c2cccc(Cl)c2)cc1 | 95 (≈ 197 µM) | 70 (≈ 145 µM) | 60 (≈ 124 µM) | 70 (≈ 145 µM) | 105 (≈ 217 µM) | 55 (≈ 114 µM) | 65 (≈ 135 µM)
COc1ccccc1-n1c(CNS(=O)(=O)c2ccc(NC(C)=O)cc2)nc2ccccc2c1=O | 95 (≈ 199 µM) | 80 (≈ 167 µM) | 80 (≈ 167 µM) | 110 (≈ 230 µM) | 105 (≈ 219 µM) | 70 (≈ 146 µM) | 90 (≈ 188 µM)
Cc1ccc(-n2c(CNS(=O)(=O)c3ccc(N)cc3)nc3ccccc3c2=O)cc1 | 95 (≈ 226 µM) | 80 (≈ 190 µM) | 65 (≈ 155 µM) | 70 (≈ 166 µM) | 90 (≈ 214 µM) | 75 (≈ 178 µM) | 80 (≈ 190 µM)
Cc1ccccc1-n1c(C)nc2ccccc2c1=O [METHAQUALONE] | 140 (≈ 559 µM) | 125 (≈ 499 µM) | 75 (≈ 300 µM) | 100 (≈ 400 µM) | 115 (≈ 459 µM) | 90 (≈ 360 µM) | 125 (≈ 499 µM)
Nc1ccc(S(=O)(=O)NCc2nc3ccccc3c(=O)n2-c2cccc([N+](=O)[O-])c2)cc1 | 85 (≈ 188 µM) | 60 (≈ 133 µM) | 60 (≈ 133 µM) | 65 (≈ 144 µM) | 90 (≈ 199 µM) | 50 (≈ 111 µM) | 70 (≈ 155 µM)
Nc1ccc(S(=O)(=O)NCc2nc3ccccc3c(=O)n2-c2cccc(Cl)c2)cc1 | 65 (≈ 147 µM) | 55 (≈ 125 µM) | 50 (≈ 113 µM) | 55 (≈ 125 µM) | 80 (≈ 181 µM) | 50 (≈ 113 µM) | 55 (≈ 125 µM)
CC(=O)Nc1ccc(S(=O)(=O)NCc2nc3ccccc3c(=O)n2-c2ccc([N+](=O)[O-])cc2)cc1 | 85 (≈ 172 µM) | 70 (≈ 142 µM) | 70 (≈ 142 µM) | 90 (≈ 182 µM) | 105 (≈ 213 µM) | 55 (≈ 111 µM) | 80 (≈ 162 µM)
COc1ccc(-n2c(CNS(=O)(=O)c3ccc(NC(C)=O)cc3)nc3ccccc3c2=O)cc1 | 65 (≈ 136 µM) | 50 (≈ 104 µM) | 50 (≈ 104 µM) | 90 (≈ 188 µM) | 100 (≈ 209 µM) | 40 (≈ 83.6 µM) | 55 (≈ 115 µM)
CC(=O)Nc1ccc(S(=O)(=O)NCc2nc3ccccc3c(=O)n2-c2ccccc2[N+](=O)[O-])cc1 | 90 (≈ 182 µM) | 80 (≈ 162 µM) | 75 (≈ 152 µM) | 100 (≈ 203 µM) | 115 (≈ 233 µM) | 65 (≈ 132 µM) | 85 (≈ 172 µM)
CC(=O)Nc1ccc(S(=O)(=O)NCc2nc3ccccc3c(=O)n2-c2cccc([N+](=O)[O-])c2)cc1 | 80 (≈ 162 µM) | 75 (≈ 152 µM) | 70 (≈ 142 µM) | 95 (≈ 193 µM) | 110 (≈ 223 µM) | 60 (≈ 122 µM) | 80 (≈ 162 µM)
CC(=O)Nc1ccc(S(=O)(=O)NCc2nc3ccccc3c(=O)n2-c2ccccc2)cc1 | 115 (≈ 256 µM) | 105 (≈ 234 µM) | 110 (≈ 245 µM) | 125 (≈ 279 µM) | 130 (≈ 290 µM) | 95 (≈ 212 µM) | 95 (≈ 212 µM)
COc1ccc(-n2c(CNS(=O)(=O)c3ccc(N)cc3)nc3ccccc3c2=O)cc1 | 70 (≈ 160 µM) | 55 (≈ 126 µM) | 50 (≈ 115 µM) | 75 (≈ 172 µM) | 75 (≈ 172 µM) | 45 (≈ 103 µM) | 60 (≈ 137 µM)
Nc1ccc(S(=O)(=O)NCc2nc3ccccc3c(=O)n2-c2ccccc2Cl)cc1 | 90 (≈ 204 µM) | 60 (≈ 136 µM) | 55 (≈ 125 µM) | 60 (≈ 136 µM) | 90 (≈ 204 µM) | 50 (≈ 113 µM) | 60 (≈ 136 µM)
